Source: US10508104B2, “6-hydroxy-5-(phenyl/heteroarylsulfonyl)pyrimidin-4(1H)-one as APJ agonists” (Bristol-Myers Squibb Company, priority 2016, dated 2019)

Molecular target: human APJ receptor (Homo sapiens (Human), UniProt P35414)
Test: Intracellular cAMP accumulation assay (APJ hcAMP, HTRF)
Format: cell-based
Settings: human APJ, cAMP accumulation; read-out: Human APJ cAMP EC50 Potency range
Outline: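 HEK293 cells stably expressing human APJ, 5,000 per well, incubated 30 min at rt with compound, […] and 2 μM forskolin. cAMP measured by HTRF against a cAMP standard curve as inhibition of forskolin-driven production. EC50 from variable-slope sigmoidal fit.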

human APJ receptor, sequence (P35414 whole entry): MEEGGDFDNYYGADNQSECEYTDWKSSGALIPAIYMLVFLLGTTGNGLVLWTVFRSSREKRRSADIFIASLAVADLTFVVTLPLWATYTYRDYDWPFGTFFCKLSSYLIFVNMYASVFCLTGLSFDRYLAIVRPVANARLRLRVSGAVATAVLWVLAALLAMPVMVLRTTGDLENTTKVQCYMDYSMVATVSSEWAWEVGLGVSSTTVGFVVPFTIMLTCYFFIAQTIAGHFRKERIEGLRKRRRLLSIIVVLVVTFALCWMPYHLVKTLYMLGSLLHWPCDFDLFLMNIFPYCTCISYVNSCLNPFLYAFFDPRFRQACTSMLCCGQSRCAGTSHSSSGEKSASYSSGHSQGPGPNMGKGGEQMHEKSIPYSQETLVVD

Row | SMILES | EC50
1 | COC[C@@H](c1ccccc1)n1c(COC(C)C)nc(=O)c(S(=O)(=O)c2ccc(-c3ccc(F)nc3C)cc2)c1O [Example 321, 5-[4-(6-fluoro-2-methylpyridin-3-yl)benzenesulfonyl]-6-hydroxy-1-[(1R)-2-methoxy-1-phenylethyl]-2-[(propan-2-yloxy)methyl]-1,4-dihydropyrimidin-4-one] | 0.01 to 10 nM
2 | CCOCc1nc(=O)c(S(=O)(=O)c2ccc(-c3cncc(F)c3)cc2)c(O)n1[C@H]1CCc2ccccc21 [Example 322, 1-[(1S)-2,3-dihydro-1H-inden-1-yl]-2-(ethoxymethyl)-5-[4-(5-fluoropyridin-3-yl)benzenesulfonyl]-6-hydroxy-1,4-dihydropyrimidin-4-one] | 0.01 to 10 nM
3 | CCOCc1nc(=O)c(S(=O)(=O)c2ccc(-c3ccncc3C)cc2)c(O)n1[C@H]1CCc2ccccc21 [Example 323, 1-[(1S)-2,3-dihydro-1H-inden-1-yl]-2-(ethoxymethyl)-6-hydroxy-5-[4-(3-methylpyridin-4-yl)benzenesulfonyl]-1,4-dihydropyrimidin-4-one] | 0.01 to 10 nM
4 | CCOCc1nc(=O)c(S(=O)(=O)c2ccc(-c3ccnc(F)c3C)cc2)c(O)n1[C@H]1CCc2ccccc21 [Example 324, 1-[(1S)-2,3-dihydro-1H-inden-1-yl]-2-(ethoxymethyl)-5-[4-(2-fluoro-3-methylpyridin-4-yl)benzenesulfonyl]-6-hydroxy-1,4-dihydropyrimidin-4-one] | 0.01 to 10 nM
5 | CCOCc1nc(=O)c(S(=O)(=O)c2ccc(-c3ccc(F)nc3)cc2)c(O)n1[C@H]1CCc2ccccc21 [Example 325, 1-[(1S)-2,3-dihydro-1H-inden-1-yl]-2-(ethoxymethyl)-5-[4-(6-fluoropyridin-3-yl)benzenesulfonyl]-6-hydroxy-1,4-dihydropyrimidin-4-one] | 0.01 to 10 nM
6 | CCOCc1nc(=O)c(S(=O)(=O)c2ccc(-c3ccc(F)nc3C)cc2)c(O)n1[C@H]1CCc2ccccc21 [Example 326, 1-[(1S)-2,3-dihydro-1H-inden-1-yl]-2-(ethoxymethyl)-5-[4-(6-fluoro-2-methylpyridin-3-yl)benzenesulfonyl]-6-hydroxy-1,4-dihydropyrimidin-4-one] | 0.01 to 10 nM
7 | COC[C@@H](c1ccccc1)n1c(COC(C)C)nc(=O)c(S(=O)(=O)c2ccc(-c3ccnc(F)c3C)cc2)c1O [Example 327, 5-[4-(2-fluoro-3-methylpyridin-4-yl)benzenesulfonyl]-6-hydroxy-1-[(1R)-2-methoxy-1-phenylethyl]-2-[(propan-2-yloxy)methyl]-1,4-dihydropyrimidin-4-one] | 0.01 to 10 nM
8 | COC[C@@H](c1ccccc1)n1c(COC(C)C)nc(=O)c(S(=O)(=O)c2ccc(-c3cccnc3C)cc2)c1O [Example 328] | 0.01 to 10 nM
9 | COC[C@@H](c1ccccc1)n1c(COC(C)C)nc(=O)c(S(=O)(=O)c2ccc(-c3ccncc3C)cc2)c1O [Example 329, 6-hydroxy-1-[(1R)-2-methoxy-1-phenylethyl]-5-[4-(3-methylpyridin-4-yl)benzenesulfonyl]-2-[(propan-2-yloxy)methyl]-1,4-dihydropyrimidin-4-one] | 0.01 to 10 nM
10 | Cc1ncccc1-c1ccc(S(=O)(=O)c2c(O)n([C@H]3CCc4ccccc43)c(COC(C)C)nc2=O)cc1 [Example 330, 1-[(1S)-2,3-dihydro-1H-inden-1-yl]-6-hydroxy-5-[4-(2-methylpyridin-3-yl)benzenesulfonyl]-2-[(propan-2-yloxy)methyl]-1,4-dihydropyrimidin-4-one] | 0.01 to 10 nM
11 | Cc1c(-c2ccc(S(=O)(=O)c3c(O)n([C@H]4CCc5ccccc54)c(COC(C)C)nc3=O)cc2)ccnc1F [Example 331, 1-[(1S)-2,3-dihydro-1H-inden-1-yl]-5-[4-(2-fluoro-3-methylpyridin-4-yl)benzenesulfonyl]-6-hydroxy-2-[(propan-2-yloxy)methyl]-1,4-dihydropyrimidin-4-one] | 0.01 to 10 nM
12 | Cc1cnccc1-c1ccc(S(=O)(=O)c2c(O)n([C@H]3CCc4ccccc43)c(COC(C)C)nc2=O)cc1 [Example 332, 1-[(1S)-2,3-dihydro-1H-inden-1-yl]-6-hydroxy-5-[4-(3-methylpyridin-4-yl)benzenesulfonyl]-2-[(propan-2-yloxy)methyl]-1,4-dihydropyrimidin-4-one] | 0.01 to 10 nM
13 | COC[C@@H](c1ccccc1)n1c(COC(C)C)nc(=O)c(S(=O)(=O)c2ccc(-c3ccnc(F)c3C)c(F)c2)c1O [Example 333, 5-[3-fluoro-4-(2-fluoro-3-methylpyridin-4-yl)benzenesulfonyl]-6-hydroxy-1-[(1R)-2-methoxy-1-phenylethyl]-2-[(propan-2-yloxy)methyl]-1,4-dihydropyrimidin-4-one] | 0.01 to 10 nM
14 | CCOCc1nc(=O)c(S(=O)(=O)c2ccc(-c3cncc(F)c3)cc2)c(O)n1[C@@H](CC)c1ccccc1 [Example 334, 2-(ethoxymethyl)-5-[4-(5-fluoropyridin-3-yl)benzenesulfonyl]-6-hydroxy-1-[(1S)-1-phenylpropyl]-1,4-dihydropyrimidin-4-one] | 0.01 to 10 nM
15 | COC[C@@H](c1ccccc1)n1c(COC(C)C)nc(=O)c(S(=O)(=O)c2ccc(-c3ccc(F)nc3)c(F)c2)c1O [Example 335, 5-[3-fluoro-4-(6-fluoropyridin-3-yl)benzenesulfonyl]-6-hydroxy-1-[(1R)-2-methoxy-1-phenylethyl]-2-[(propan-2-yloxy)methyl]-1,4-dihydropyrimidin-4-one] | 0.01 to 10 nM
16 | COC[C@@H](c1ccccc1)n1c(COC(C)C)nc(=O)c(S(=O)(=O)c2ccc(-c3ccncc3C)c(F)c2)c1O [Example 336, 5-[3-fluoro-4-(3-methylpyridin-4-yl)benzenesulfonyl]-6-hydroxy-1-[(1R)-2-methoxy-1-phenylethyl]-2-[(propan-2-yloxy)methyl]-1,4-dihydropyrimidin-4-one] | 0.01 to 10 nM
17 | COC[C@@H](c1ccccc1)n1c(COC(C)C)nc(=O)c(S(=O)(=O)c2ccc(F)c(F)c2)c1O [Example 337, 5-(3,4-difluorobenzenesulfonyl)-6-hydroxy-1-[(1R)-2-methoxy-1-phenylethyl]-2-[(propan-2-yloxy)methyl]-1,4-dihydropyrimidin-4-one] | 0.01 to 10 nM
18 | CCOCc1nc(=O)c(S(=O)(=O)c2ccc(-c3ccnc(F)c3C)c(F)c2)c(O)n1[C@@H](COC)c1ccccc1 [Example 338, 2-(ethoxymethyl)-5-[3-fluoro-4-(2-fluoro-3-methylpyridin-4-yl)benzenesulfonyl]-6-hydroxy-1-[(1R)-2-methoxy-1-phenylethyl]-1,4-dihydropyrimidin-4-one] | 0.01 to 10 nM
19 | CCOCc1nc(=O)c(S(=O)(=O)c2ccc(-c3ccc(F)nc3C)c(F)c2)c(O)n1[C@@H](COC)c1ccccc1 [Example 339, 2-(ethoxymethyl)-5-[3-fluoro-4-(6-fluoro-2-methylpyridin-3-yl)benzenesulfonyl]-6-hydroxy-1-[(1R)-2-methoxy-1-phenylethyl]-1,4-dihydropyrimidin-4-one] | 0.01 to 10 nM
20 | CCOCc1nc(=O)c(S(=O)(=O)c2ccc(-c3ccncc3C)c(F)c2)c(O)n1[C@@H](COC)c1ccccc1 [Example 340, 2-(ethoxymethyl)-5-[3-fluoro-4-(3-methylpyridin-4-yl)benzenesulfonyl]-6-hydroxy-1-[(1R)-2-methoxy-1-phenylethyl]-1,4-dihydropyrimidin-4-one] | 0.01 to 10 nM
